Reference: the supplement of paper PMC11451515

Tested on: SEM cells
Assay: cell viability relative to DMSO control; higher = less cytotoxic
Settings: 48 h
Procedure, shortened: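 NOMO1 or SEM cells were plated at 500 cells/well and P12-Ichikawa cells at 1000 cells/well in 1536-well plates (5 μl), after each leukemia line had been adapted for at least four passages in each medium. Pin dosing delivered library compounds in DMSO at 11 threefold concentrations, 47 μM to 0.79 nM. CellTiter-Glo One luminescence was read after 48 h at 37°C. Viability is reported as a per-plate percentage of DMSO wells, with cell-free wells as background.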

[1] = HPLM + 10% dialyzed FBS, 0.000781 µM
[2] = HPLM + 10% dialyzed FBS, 0.00234 µM
[3] = HPLM + 10% dialyzed FBS, 0.00702 µM
[4] = HPLM + 10% dialyzed FBS, 0.0211 µM
[5] = HPLM + 10% dialyzed FBS, 0.0632 µM
[6] = HPLM + 10% dialyzed FBS, 0.19 µM
[7] = HPLM + 10% dialyzed FBS, 0.569 µM
[8] = HPLM + 10% dialyzed FBS, 1.71 µM
[9] = HPLM + 10% dialyzed FBS, 5.12 µM
[10] = HPLM + 10% dialyzed FBS, 15.4 µM
[11] = HPLM + 10% dialyzed FBS, 46.1 µM
[12] = RPMI 5 mM glucose + 10% FBS, 0.000781 µM
[13] = RPMI 5 mM glucose + 10% FBS, 0.00234 µM
[14] = RPMI 5 mM glucose + 10% FBS, 0.00702 µM
[15] = RPMI 5 mM glucose + 10% FBS, 0.0211 µM
[16] = RPMI 5 mM glucose + 10% FBS, 0.0632 µM
[17] = RPMI 5 mM glucose + 10% FBS, 0.19 µM
[18] = RPMI 5 mM glucose + 10% FBS, 0.569 µM
[19] = RPMI 5 mM glucose + 10% FBS, 1.71 µM
[20] = RPMI 5 mM glucose + 10% FBS, 5.12 µM
[21] = RPMI 5 mM glucose + 10% FBS, 15.4 µM
[22] = RPMI 5 mM glucose + 10% FBS, 46.1 µM
[23] = RPMI 5 mM glucose + 10% dialyzed FBS, 0.000781 µM
[24] = RPMI 5 mM glucose + 10% dialyzed FBS, 0.00234 µM
[25] = RPMI 5 mM glucose + 10% dialyzed FBS, 0.00702 µM
[26] = RPMI 5 mM glucose + 10% dialyzed FBS, 0.0211 µM
[27] = RPMI 5 mM glucose + 10% dialyzed FBS, 0.0632 µM
[28] = RPMI 5 mM glucose + 10% dialyzed FBS, 0.19 µM
[29] = RPMI 5 mM glucose + 10% dialyzed FBS, 0.569 µM
[30] = RPMI 5 mM glucose + 10% dialyzed FBS, 1.71 µM
[31] = RPMI 5 mM glucose + 10% dialyzed FBS, 5.12 µM
[32] = RPMI 5 mM glucose + 10% dialyzed FBS, 15.4 µM
[33] = RPMI 5 mM glucose + 10% dialyzed FBS, 46.1 µM

SMILES | cell viability [1] [%] | cell viability [2] [%] | cell viability [3] [%] | cell viability [4] [%] | cell viability [5] [%] | cell viability [6] [%] | cell viability [7] [%] | cell viability [8] [%] | cell viability [9] [%] | cell viability [10] [%] | cell viability [11] [%] | cell viability [12] [%] | cell viability [13] [%] | cell viability [14] [%] | cell viability [15] [%] | cell viability [16] [%] | cell viability [17] [%] | cell viability [18] [%] | cell viability [19] [%] | cell viability [20] [%] | cell viability [21] [%] | cell viability [22] [%] | cell viability [23] [%] | cell viability [24] [%] | cell viability [25] [%] | cell viability [26] [%] | cell viability [27] [%] | cell viability [28] [%] | cell viability [29] [%] | cell viability [30] [%] | cell viability [31] [%] | cell viability [32] [%] | cell viability [33] [%]
C[C@@H](O)[C@@H]1[C@H]2[C@@H](C)\C(=C(/N2C1=O)C(=O)OCOC(=O)C(C)(C)C)SC3CN(C3)/C4=N/CCS4 | 74.8 | 95.7 | 99.2 | 112 | 117 | 102 | 101 | 108 | 107 | 97.2 | 82.1 | 88.7 | 114 | 119 | 117 | 101 | 116 | 111 | 125 | 117 | 109 | 72.8 | 82.5 | 109 | 120 | 113 | 122 | 138 | 106 | 113 | 121 | 121 | 85.9
COc1cc(C(C)=O)ccc1OCCCN1CCC(c2noc3cc(F)ccc23)CC1 | 110 | 112 | 118 | 95 | 99.3 | 124 | 123 | 123 | 122 | 128 | 88.7 | – | – | – | – | – | – | – | – | – | – | – | 113 | 121 | 137 | 135 | 115 | 142 | 160 | 135 | 158 | 138 | 106
C[C@@]12O[C@@H](C[C@]1(O)CO)n1c3ccccc3c3c4c(c5c6ccccc6n2c5c31)CNC4=O | 117 | 125 | 127 | 109 | 89.7 | 65.5 | 27.3 | 18.4 | 14.8 | 11.8 | 7.23 | – | – | – | – | – | – | – | – | – | – | – | 118 | 111 | 96.4 | 106 | 65 | 52.1 | 20.2 | 13 | 8.04 | 6.86 | 5.81
CC(=O)CC(C1=CC=CC=C1)C/2=C(O)/C3=CC=CC=C3OC2=O (stereo not given) | 80.7 | 101 | 114 | 71.7 | 119 | 114 | 103 | 110 | 116 | 113 | 120 | 110 | 104 | 105 | 73.1 | 105 | 105 | 115 | 118 | 115 | 125 | 137 | 84.4 | 103 | 114 | 73.4 | 111 | 123 | 119 | 125 | 128 | 126 | 123
COC[C@@H](NC(C)=O)C(=O)NCc1ccccc1 | 117 | 116 | 118 | 118 | 112 | 119 | 124 | 105 | 100 | 120 | 111 | 115 | 111 | 118 | 123 | 99.7 | 115 | 99.9 | 121 | 90.3 | 103 | 116 | 103 | 101 | 102 | 96.7 | 99.4 | 131 | 106 | 105 | 90 | 86.7 | 96.9
CC1(C)OC2CC3C4CC(F)C/5=C/C(=O)/C=C\C5(C)C4C(O)CC3(C)[C@@]2(O1)C(=O)CO (stereo not given in full) | 97.4 | 95.3 | 95.6 | 102 | 94.6 | 85.9 | 77.2 | 65.9 | 65.7 | 33.9 | 71.1 | 91.4 | 98.9 | 104 | 105 | 101 | 77.5 | 60.7 | 56 | 59.6 | 20.5 | 60.3 | 109 | 95.4 | 122 | 125 | 106 | 78 | 75.4 | 62.7 | 55.9 | 26 | 61.6
O=C(O)c1ccc(-n2nc(-c3ccccc3O)nc2-c2ccccc2O)cc1 | 86.4 | 93 | 85.3 | 92 | 90.9 | 94.6 | 96.4 | 98 | 101 | 82.1 | 43 | 80.7 | 76.6 | 86.7 | 86.8 | 100 | 96.9 | 93.3 | 93.7 | 108 | 66 | 24.9 | 77.6 | 76 | 91 | 98.1 | 95.5 | 108 | 102 | 102 | 99.1 | 58.8 | 19.4
O=C(NC[C@H](O)CN1CCc2ccccc2C1)c1cc(NC2COC2)ncn1 | 58.8 | 84.9 | 91.5 | 81.6 | 86.3 | 75 | 68.5 | 71.6 | 78.4 | 68.6 | 26.9 | 71.9 | 145 | 124 | 141 | 132 | 121 | 108 | 108 | 114 | 88.5 | 47.2 | 59 | 107 | 100 | 91.1 | 73.8 | 81 | 80.5 | 75.2 | 84.2 | 65.1 | 25.2
Cn1cc(-c2ccc3nnc(C(F)(F)c4ccc5ncccc5c4)n3n2)cn1 | 103 | 117 | 115 | 99.6 | 111 | 108 | 113 | 106 | 106 | 95.4 | 82 | 123 | 115 | 120 | 112 | 126 | 132 | 126 | 123 | 114 | 121 | 81.5 | 96 | 114 | 104 | 102 | 105 | 111 | 98.6 | 97.2 | 94.8 | 90.5 | 67.2
N=C(N)NC(=O)c1nc(Cl)c(N)nc1N | 101 | 104 | 120 | 111 | 114 | 104 | 136 | 114 | 129 | 124 | 123 | 101 | 107 | 108 | 108 | 118 | 119 | 117 | 113 | 113 | 114 | 120 | 101 | 122 | 110 | 108 | 126 | 124 | 120 | 126 | 119 | 116 | 121
COc1cc2nc(N3CCCN(C)CC3)nc(NC3CCN(Cc4ccccc4)CC3)c2cc1OC | 92.1 | 122 | 129 | 111 | 130 | 119 | 125 | 98.1 | 60.1 | 37.5 | 10.2 | 104 | 116 | 140 | 113 | 132 | 127 | 143 | 97.7 | 108 | 44.8 | 11.5 | 112 | 117 | 131 | 104 | 128 | 132 | 132 | 131 | 92.3 | 55.9 | 19.1
O=C(/C=C/c1c(C(=O)[O-])[nH]c2cc(Cl)cc(Cl)c12)Nc1ccccc1 | 89.9 | 120 | 122 | 122 | 127 | 114 | 123 | 132 | 124 | 115 | 73.1 | 110 | 113 | 106 | 102 | 118 | 112 | 121 | 122 | 129 | 118 | 65.1 | 95.9 | 103 | 110 | 119 | 104 | 125 | 101 | 121 | 128 | 118 | 60
CN1\C(=C(\O)C2=C(C=CS2)[S+]1([O-])=O)C(=O)NC3=CC=CC=N3 | 106 | 108 | 112 | 103 | 114 | 112 | 109 | 105 | 106 | 98.4 | 102 | 95 | 107 | 112 | 100 | 114 | 101 | 112 | 103 | 103 | 108 | 90.9 | 110 | 95.5 | 112 | 108 | 107 | 112 | 104 | 112 | 106 | 106 | 103
C[N+]1(C)[C@@H]2C[C@@H](OC(=O)[C@H](CO)c3ccccc3)C[C@H]1[C@@H]1O[C@@H]12.[Br-] | 85 | 94.6 | 96.1 | 93.9 | 105 | 102 | 110 | 117 | 103 | 114 | 102 | 92.3 | 90.4 | 102 | 95.1 | 100 | 92 | 107 | 112 | 105 | 93.3 | 89.5 | 77.3 | 87.2 | 109 | 98.6 | 105 | 107 | 112 | 105 | 121 | 103 | 101
Cc1nccn1CC1CCc2c(c3ccccc3n2C)C1=O (stereo not given) | 118 | 120 | 135 | 132 | 142 | 120 | 110 | 117 | 104 | 116 | 92 | 121 | 119 | 127 | 114 | 115 | 105 | 127 | 104 | 108 | 109 | 85.4 | – | – | – | – | – | – | – | – | – | – | –
CCC[C@H](N[C@@H](C)C(=O)N1[C@H](C(=O)O)C[C@@H]2CCCC[C@@H]21)C(=O)OCC | 114 | 111 | 104 | 114 | 120 | 115 | 118 | 112 | 106 | 111 | 105 | 107 | 101 | 107 | 110 | 105 | 116 | 104 | 110 | 105 | 98.6 | 102 | 110 | 105 | 108 | 122 | 111 | 110 | 107 | 106 | 125 | 122 | 106
